Test results as given in ChEMBL document CHEMBL4177524, “Discovery of hepatitis B virus capsid assembly inhibitors leading to a heteroaryldihydropyrimidine based clinical candidate (GLS4)” (Bioorg Med Chem, 2017).

What was measured:
[1] = Cytotoxicity in human HepG2.215 cells assessed as reduction in cell viability after 5 days by CCK8 assay; format: cell-based, HepG2 2.2.15; settings: HepG2.2.15 cells
Hepatitis B virus [2] = experiment: Antiviral activity against entecavir-resistant hepatitis B virus harboring reverse transcriptase M204I/S202G/M250V triple mutant infected in human Huh7 cells assessed as reduction in secreted DNA levels measured on day 7 by real-time PCR analysis; format: functional, organism-based; settings: Huh-7, 168 h
Hepatitis B virus [3] = experiment: Antiviral activity against entecavir-resistant wild type hepatitis B virus infected in human Huh7 cells assessed as reduction in intracellular DNA levels measured on day 7 by real-time PCR analysis; format: functional, organism-based; settings: Huh-7, 168 h
Hepatitis B virus [4] = experiment: Antiviral activity against entecavir-resistant wild type hepatitis B virus infected in human Huh7 cells assessed as reduction in secreted DNA levels measured on day 7 by real-time PCR analysis; format: functional, organism-based; settings: Huh-7, 168 h
Hepatitis B virus [5] = experiment: Antiviral activity against entecavir-resistant hepatitis B virus harboring reverse transcriptase M204I/S202G double mutant infected in human Huh7 cells assessed as reduction in secreted DNA levels measured on day 7 by real-time PCR analysis; format: functional, organism-based; settings: Huh-7, 168 h
Hepatitis B virus [6] = experiment: Antiviral activity against entecavir-resistant hepatitis B virus harboring reverse transcriptase M204I/S202G/M250V triple mutant infected in human Huh7 cells assessed as reduction in intracellular DNA levels measured on day 7 by real-time PCR analysis; format: functional, organism-based; settings: Huh-7, 168 h
Hepatitis B virus [7] = experiment: Antiviral activity against entecavir-resistant hepatitis B virus harboring reverse transcriptase M204I/S202G double mutant infected in human Huh7 cells assessed as reduction in intracellular DNA levels measured on day 7 by real-time PCR analysis; format: functional, organism-based; settings: Huh-7, 168 h

Structure (SMILES)	CC50 at 120 h [1]	EC50 (Hepatitis B virus [2])	EC50 (Hepatitis B virus [3])	EC50 (Hepatitis B virus [4])	EC50 (Hepatitis B virus [5])	EC50 (Hepatitis B virus [6])	EC50 (Hepatitis B virus [7])
C[C@H](Cn1cnc2c(N)ncnc21)OCP(=O)(O)O [TENOFOVIR ANHYDROUS]	399 µM						
C=C1[C@H](CO)[C@@H](O)C[C@@H]1n1cnc2c(=O)[nH]c(N)nc21	30 µM	> 20 µM	0.013 µM	0.014 µM	> 20 µM	> 20 µM	> 20 µM
